Measurements: patent US6432959B1, “Inhibitors of farnesyl-protein transferase” (Schering Corporation, priority 1998, dated 2002)

How the values were obtained:
[1] = target: T1, partially purified rat brain farnesyl protein transferase (FPT) (Rattus norvegicus, UniProt Q02293+Q04631); assay: FPT IC50, in vitro enzyme assay (inhibition of Ras-CVLS farnesylation); assay type: biochemical; conditions: inhibition of Ras-CVLS farnesylation by partially purified rat brain FPT; value is a range stated for a group of compounds
T1 construct: partially purified rat brain farnesyl protein transferase (FPT); from tissue; host or cells: rat brain
Method: 1. In vitro enzyme assays: FPT IC50 (inhibition of farnesyl protein transferase, in vitro enzyme assay) are determined by the methods disclosed in WO/10515 or WO95/10516.

## CC(C)(C)NC(=O)N1CCN(Cc2ccccc2)C[C@@H]1C(=O)N(CCCn1ccnc1)Cc1ccccc1 [Example 28T, N1-(1,1-dimethylethyl)-N2-[3-(1H-imidazol-1-yl)propyl]-N2,4-bis(phenylmethyl)-1,2(R)-piperazinedicarboxamide]
other
  melting point: 57.8 °C
[1]
  IC50: 0.18 to 21 nM
